Columns and labels:
PBMCs [1] = assay: LPS-induced IL-8 release in PBMC cells (assay b); type: cell-based, human; conditions: Homo sapiens, PBMC; LPS-stimulated PBMCs; read-out: IC50 Values for Inhibition of Cytokine Release, PBMCs IL-8
Summary of the method: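 Human PBMCs from healthy donors, isolated by density gradient, were pretreated with compound for 2 h and then stimulated with 1 ng/mL LPS (E. coli 0111:B4) for 24 h at 37° C, 5% CO2. Supernatant IL-8 and TNFα were measured by sandwich ELISA, and IC50 was taken from the dose-response curve.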

GSK 3α = GSK 3α (Homo sapiens (Human), UniProt P49840); assay: GSK 3α enzyme inhibition (FRET, Z-LYTE, Method 2); type: biochemical; conditions: read-out: IC50 Values for Enzyme Inhibition, GSK3α
Sequence of GSK 3α (P49840 whole entry): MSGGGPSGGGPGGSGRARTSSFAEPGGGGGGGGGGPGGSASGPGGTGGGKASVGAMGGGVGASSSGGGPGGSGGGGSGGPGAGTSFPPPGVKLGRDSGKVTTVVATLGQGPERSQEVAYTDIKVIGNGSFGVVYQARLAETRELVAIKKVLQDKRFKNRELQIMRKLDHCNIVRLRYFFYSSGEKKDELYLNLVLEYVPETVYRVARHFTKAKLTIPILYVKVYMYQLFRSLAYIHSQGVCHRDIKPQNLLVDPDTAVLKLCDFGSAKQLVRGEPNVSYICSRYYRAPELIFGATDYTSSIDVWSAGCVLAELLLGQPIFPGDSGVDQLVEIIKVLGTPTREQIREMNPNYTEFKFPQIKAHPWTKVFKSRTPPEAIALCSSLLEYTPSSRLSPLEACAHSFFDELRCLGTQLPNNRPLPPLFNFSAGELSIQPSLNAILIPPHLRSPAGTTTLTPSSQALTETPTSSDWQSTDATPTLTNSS
Summary of the method: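 Phosphorylation of a dual-labelled synthetic peptide by human GSK3α is read as a coumarin/fluorescein ratio after protease development. Compound stocks run 4 to 0.004 μg/mL, and ATP stock is 40 μM.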

Syk = Syk (Homo sapiens (Human), UniProt P43405); assay: Syk enzyme inhibition (FRET, Z-LYTE); type: biochemical
Procedure: (§1) The enzyme inhibitory activities of compounds disclosed herein are determined by FRET using synthetic peptides labelled with both donor and acceptor fluorophores (Z-LYTE, Invitrogen Ltd., Paisley, UK).
(§2) The inhibitory activities of compounds of the invention against c-Src and Syk enzymes (Invitrogen), are evaluated in a similar fashion to that described hereinabove. The relevant enzyme (3000 ng/mL or 2000 ng/mL respectively, 2.5 μL) is incubated with the test compound (either 4 μg/mL, 0.4 μg/mL, 0.04 μg/mL, or 0.004 μg/mL, 2.5 μL each) for 2 hr at RT. The FRET peptides (8 μM, 2.5 μL), and appropriate ATP solutions (2.5 μL, 800 μM for c-Src, and 60 μM ATP for Syk) are then added to the enzymes/compound mixtures and incubated for 1 hr. Development reagent (protease, 5 μL) is added for 1 hr prior to detection in a fluorescence microplate reader (Varioskan® Flash, ThermoFisher Scientific).
(§3) In all cases, the site-specific protease cleaves non-phosphorylated peptide only and eliminates the FRET signal. Phosphorylation levels of each reaction are calculated using the ratio of coumarin emission (donor) over fluorescein emission (acceptor), for which high ratios indicate high phosphorylation and low ratios indicate low phosphorylation levels. The percentage inhibition of each reaction is calculated relative to non-inhibited control and the 50% inhibitory concentration (IC50 value) is then calculated from the concentration-response curve.

d-U937 cells = assay: Accumulation of β catenin in d-U937 cells (assay m); type: cell-based, human; conditions: percentage relative to Reference Compound at 1 μg/mL
Procedure: U937 cells, a human monocytic cell line, are differentiated into macrophage-type cells by incubation with PMA; (100 ng/mL) for between 48 to 72 hr. The cells are then incubated with either final concentrations of test compound or vehicle for 18 hr. The induction of β-catenin by the test compounds is stopped by replacing the media with 4% formaldehyde solution. Endogenous peroxide activity is neutralised by incubating with quenching buffer (100 μL, 0.1% sodium azide, 1% H2O2 in PBS with 0.05% Tween-20) for 20 min. The cells are washed with washing buffer (200 μL; PBS containing 0.05% Tween-20) and incubated with blocking solution (200 μL; 5% milk in PBS) for 1 hr, re-washed with washing buffer (200 μL) and then incubated overnight with anti-β-catenin antibody solution (50 μL) in 1% BSA/PBS (BD, Oxford, UK).
After washing with washing buffer (3×200 μL; PBS containing 0.05% Tween-20), cells are incubated with an HRP-conjugated secondary antibody solution (100 μL) in 1% BSA/PBS (Dako, Cambridge, UK) and the resultant signal is determined colourimetrically (OD: 450 nm with a reference wavelength of 655 nm) using TMB substrate (50 μL; R&D Systems, Abingdon, UK). This reaction is stopped by addition of 1N H2SO4 solution (50 μL). Cells are then washed with washing buffer and 2% crystal violet solution (50 μL) is applied for 30 min. After washing with washing buffer (3×200 μL), 1% SDS (100 μL) is added to each well and the plates are shaken lightly for 1 hr prior to measuring the absorbance at 595 nm (Varioskan® Flash, Thermo-Fisher Scientific).
The measured OD450-655 readings are corrected for cell number by dividing the OD450-655 by the OD595 readings.

c-Src = c-Src (Homo sapiens (Human), UniProt P12931); assay: c-Src enzyme inhibition (FRET, Z-LYTE); type: biochemical
Sequence of c-Src (P12931 whole entry, looked up): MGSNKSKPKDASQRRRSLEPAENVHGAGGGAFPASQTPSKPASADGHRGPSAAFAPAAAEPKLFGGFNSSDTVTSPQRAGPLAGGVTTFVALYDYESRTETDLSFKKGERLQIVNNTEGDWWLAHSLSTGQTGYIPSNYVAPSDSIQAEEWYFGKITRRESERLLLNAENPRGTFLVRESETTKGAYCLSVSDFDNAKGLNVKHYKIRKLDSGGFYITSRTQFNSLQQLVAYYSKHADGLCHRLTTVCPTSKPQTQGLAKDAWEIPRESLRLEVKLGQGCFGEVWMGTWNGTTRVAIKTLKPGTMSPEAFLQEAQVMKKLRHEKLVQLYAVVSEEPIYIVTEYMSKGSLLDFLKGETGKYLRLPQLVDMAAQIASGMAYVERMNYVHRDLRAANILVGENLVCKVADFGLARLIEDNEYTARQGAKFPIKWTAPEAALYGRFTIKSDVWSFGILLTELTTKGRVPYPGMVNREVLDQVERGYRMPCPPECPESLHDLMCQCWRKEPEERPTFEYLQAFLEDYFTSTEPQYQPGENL
Procedure: as §1, §2, §3

[2] = target: p38 MAPKα isoform (MAPK14) (Homo sapiens (Human), UniProt Q16539); assay: p38 MAPKα enzyme inhibition (FRET, Z-LYTE, Method 2); type: biochemical
Sequence of p38 MAPKα isoform (MAPK14) (Q16539 whole entry, canonical isoform): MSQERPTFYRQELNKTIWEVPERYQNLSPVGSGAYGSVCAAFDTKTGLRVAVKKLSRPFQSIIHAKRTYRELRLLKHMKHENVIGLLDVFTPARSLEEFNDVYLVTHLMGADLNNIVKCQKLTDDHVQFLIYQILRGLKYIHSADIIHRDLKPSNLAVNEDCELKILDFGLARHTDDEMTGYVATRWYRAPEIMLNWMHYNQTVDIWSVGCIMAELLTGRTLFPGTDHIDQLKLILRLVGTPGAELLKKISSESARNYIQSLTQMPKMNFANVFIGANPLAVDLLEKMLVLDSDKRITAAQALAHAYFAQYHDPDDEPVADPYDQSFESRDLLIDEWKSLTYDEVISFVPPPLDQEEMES
Procedure: as §1
The following two assay variants can be used for determination of p38 MAPKα inhibition.
The inhibitory activities of test compounds against the p38 MAPKα isoform (MAPK14: Invitrogen), are evaluated indirectly by determining the level of activation/phosphorylation of the down-stream molecule, MAPKAP-K2. The p38 MAPKα protein (80 ng/mL, 2.5 μL) is mixed with the test compound (2.5 μL of either 4 μg/mL, 0.4 μg/mL, 0.04 μg/mL or 0.004 μg/mL) for 2 hr at RT. […] The mixture is incubated for 1 hr at RT. Development reagent (protease, 5 μL) is added for 1 hr prior to detection in a fluorescence microplate reader (Varioskan® Flash, ThermoFisher Scientific).
This method follows the same steps as Method 1 above, but utilises a higher concentration of the p38 MAPKα protein (2.5 μL of 200 ng/mL protein instead of 2.5 μL of 80 ng/mL protein) for mixing with the test compound.
as §3

PBMCs [3] = assay: Cell mitosis assay in PBMCs (assay g); type: cell-based; conditions: Homo sapiens, PBMC, test compound 5 μg/mL
Procedure: Peripheral blood mononucleocytes (PBMCs) from healthy subjects are separated from whole blood (Quintiles, London, UK) using a density gradient (Histopaque®-1077, Sigma-Aldrich, Poole, UK). The PBMCs (3 million cells per sample) are subsequently treated with 2% PHA (phytohaemagglutinin, Sigma-Aldrich, Poole, UK) for 48 hr, followed by a 20 hr exposure to varying concentrations of test compounds. At 2 hr before collection, PBMCs are treated with demecolcine (0.1 μg/mL; Invitrogen, Paisley, UK) to arrest cells in metaphase. To observe mitotic cells, PBMCs are permeabilised and fixed by adding Intraprep (50 μL; Beckman Coulter, France), and stained with anti-phospho-histone 3 (0.26 ng/L; #9701; Cell Signalling, Danvers, Mass.) and propidium iodide (1 mg/mL; Sigma-Aldrich, Poole, UK) as previously described (Muehlbauer P. A. and Schuler M. J., Mutation Research, 2003, 537:117-130). Fluorescence is observed using an ATTUNE flow cytometer (Invitrogen, Paisley, UK), gating for lymphocytes. The percentage inhibition of mitosis is calculated for each treatment relative to vehicle (0.5% DMSO) treatment.

Structure (SMILES)	IC50 (GSK 3α) [µM]	IC50 (Syk) [nM]	IC50 (c-Src) [nM]	IC50 [2] [nM]	IC50 (PBMCs [1]) [nM]	% β-catenin induction (d-U937 cells; test compound 1 μg/mL) [%]	% β-catenin induction (d-U937 cells; test compound 5 μg/mL) [%]	% β-catenin induction (d-U937 cells; test compound 10 μg/mL) [%]	inhibition at 5 µg/mL (PBMCs [3]) [%]
COc1c(NC(=O)Nc2ccc(Oc3ccnc(N(C)C)n3)c3ccccc23)cc(C(C)(C)C)cc1P(C)(C)=O [15(ak), 1-(5-(tert-butyl)-3-(dimethylphosphoryl)-2-methoxyphenyl)-3-(4-((2-(dimethylamino)-pyrimidin-4-yl)oxy)naphthalen-1-yl)urea]	> 17.8	> 1780	> 1780	38	26				
COc1c(NC(=O)Nc2ccc(Oc3ccnc(Nc4cc(C)c5[nH]ncc5c4)n3)c3ccccc23)cc(C(C)(C)C)cc1P(C)(C)=O [15(j), 1-(5-(tert-butyl)-3-(dimethylphosphoryl)-2-methoxyphenyl)-3-(4-((2-((7-methyl-1H-indazol-5-yl)amino)pyrimidin-4-yl)oxy)naphthalen-1-yl)urea]	0.855	16	19	173	3.2				
COc1c(CC(N)=O)cc(C(C)(C)C)cc1NC(=O)Nc1ccc(Oc2ccnc(Nc3cc(OCCN4CCOCC4)cc(C(F)(F)F)c3)c2)c2ccccc12 [38(w), 2-(5-(tert-Butyl)-2-methoxy-3-(3-(4-((2-((3-(2-morpholinoethoxy)-5-(trifluoromethyl)-phenyl)amino)pyridin-4-yl)oxy)naphthalen-1-yl)ureido)phenyl)acetamide]	> 12.7				4				23.9
COc1c(NC(=O)Nc2ccc(Oc3ccnc(Nc4cc(OCCN5CCOCC5)cc(C(F)(F)F)c4)c3)c3ccccc23)cc(C(C)(C)C)cc1[S+](C)[O-] (centres unmarked) [38(x), 1-(5-(tert-Butyl)-2-methoxy-3-(methylsulfinyl)phenyl)-3-(4-((2-((3-(2-morpholinoethoxy)-5-(trifluoromethyl)phenyl)amino)pyridin-4-yl)oxy)naphthalen-1-yl)urea]	> 12.6				4.1				35
COc1cc(Nc2cc(Oc3ccc(NC(=O)Nc4cc(C(C)(C)C)cc(P(C)(C)=O)c4OC)c4ccccc34)ccn2)cc(S(=O)(=O)N(C)CCN2CCN(C)CC2)c1 [79(m), 3-((4-((4-(3-(5-(tert-Butyl)-3-(dimethylphosphoryl)-2-methoxyphenyl)ureido)naphthalen-1-yl)oxy)pyridin-2-yl)amino)-5-methoxy-N-methyl-N-(2-(4-methylpiperazin-1-yl)ethyl)benzene sulfonamide]		7	25	6	1.8				
COCCOCCOCCOc1cc(Nc2cc(Oc3ccc(NC(=O)Nc4cc(C(C)(C)C)cc(CP(C)(C)=O)c4OC)c4ccccc34)ccn2)cc(OC)c1 [Example 29, 1-(5-(tert-Butyl)-3-((dimethylphosphoryl)methyl)-2-methoxyphenyl)-3-(4-((2-((3-methoxy-5-(2-(2-(2-methoxyethoxy)ethoxy)ethoxy)phenyl)amino)pyridin-4-yl)oxy)naphthalen-1-yl)urea]	5.47	123	24	31	0.8	6.5	9.0	45.0	49.4
COc1c(NC(=O)Nc2ccc(Oc3ccnc(NCc4ccccn4)n3)c3ccccc23)cc(C(C)(C)C)cc1P(C)(C)=O [Example 32, 1-(5-(tert-Butyl)-3-(dimethylphosphoryl)-2-methoxyphenyl)-3-(4-((2-((pyridin-2-ylmethyl)-amino)pyrimidin-4-yl)oxy)naphthalen-1-yl)urea]	0.988	1600	1110	6	1.8				

The next lines start with results.

IC50 (GSK 3α) [µM]	IC50 (Syk) [nM]	IC50 (c-Src) [nM]	IC50 [2] [nM]	Structure (SMILES)	IC50 (PBMCs [1]) [nM]	% β-catenin induction (d-U937 cells; test compound 1 μg/mL) [%]	% β-catenin induction (d-U937 cells; test compound 5 μg/mL) [%]	% β-catenin induction (d-U937 cells; test compound 10 μg/mL) [%]	inhibition at 5 µg/mL (PBMCs [3]) [%]
9.39	278	77	226	COc1cccc(Nc2cc(Oc3ccc(NC(=O)Nc4cc(C(C)(C)C)cc(P(C)(C)=O)c4OC)c4ccccc34)ccn2)c1 [15(af), 1-(5-(tert-butyl)-3-(dimethylphosphoryl)-2-methoxyphenyl)-3-(4-((2-((3-methoxy-phenyl)amino)pyridin-4-yl)oxy)naphthalen-1-yl)urea]	2.7	−2.0	13.0	32.0	
0.785	273	14	59	COc1c(NC(=O)Nc2ccc(Oc3ccnc(Nc4ccccc4)n3)c3ccccc23)cc(C(C)(C)C)cc1P(C)(C)=O [15(b), 1-(5-(tert-butyl)-3-(dimethylphosphoryl)-2-methoxyphenyl)-3-(4-((2-(phenylamino)-pyrimidin-4-yl)oxy)naphthalen-1-yl)urea]	4.5				
11.3	137	44	230	COc1cc(Nc2cc(Oc3ccc(NC(=O)Nc4cc(C(C)(C)C)cc(P(C)(C)=O)c4OC)c4ccccc34)ccn2)cc(OC)c1 [Example 27, 1-(5-(tert-Butyl)-3-(dimethylphosphoryl)-2-methoxyphenyl)-3-(4-((2-((3,5-dimethoxyphenyl)-amino)pyridin-4-yl)oxy)naphthalen-1-yl)urea]	1	5.7	13.0	13.3	52

Source: patent US9890185B2, “Urea derivatives useful as kinase inhibitors” (Respivert Limited, priority 2013, dated 2018)
